Source: patent US20250268859A1, “OXAFURAMINE, (1R)-N-ETHYL-1-[(2R)-OXOLAN-2-YL]-2-[…], HYDROCHLORIDE AND DERIVATIVES THEREOF FOR TREATING ALZHEIMER'S DISEASE (AD), […] […], […] WITH LEWY BODIES (DLB), MIXED […], FRON[…] DEGENERATION (FTLD), AND PARKINSON'S DISEASE (PD)” (NLS Pharmaceutics AG, priority 2021, published 2025)

Tests used:
GABA-A1 = biological target: T1, GABA-A1 (Homo sapiens, UniProt P14867+P47870); assay: Radioligand binding panel, GABA-A1 (antagonist radioligand); conditions: 10^−5 M; % inhibition of control specific binding
T1 construct: Eurofins (contract panel)
T1 sequence (P14867 28-456): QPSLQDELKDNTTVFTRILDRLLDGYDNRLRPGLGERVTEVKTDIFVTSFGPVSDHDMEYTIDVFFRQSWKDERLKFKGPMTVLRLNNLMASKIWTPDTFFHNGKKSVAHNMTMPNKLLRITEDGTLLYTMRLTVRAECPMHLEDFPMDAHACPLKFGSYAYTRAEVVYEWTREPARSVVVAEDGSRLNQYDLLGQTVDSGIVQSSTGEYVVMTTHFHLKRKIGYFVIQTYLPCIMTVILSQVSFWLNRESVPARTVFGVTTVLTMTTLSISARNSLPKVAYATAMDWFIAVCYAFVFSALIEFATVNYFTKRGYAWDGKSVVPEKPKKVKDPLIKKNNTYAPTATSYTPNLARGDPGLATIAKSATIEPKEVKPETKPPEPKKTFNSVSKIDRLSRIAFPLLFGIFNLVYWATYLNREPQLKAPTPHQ
T1 sequence (P47870 25-512 limits assumed): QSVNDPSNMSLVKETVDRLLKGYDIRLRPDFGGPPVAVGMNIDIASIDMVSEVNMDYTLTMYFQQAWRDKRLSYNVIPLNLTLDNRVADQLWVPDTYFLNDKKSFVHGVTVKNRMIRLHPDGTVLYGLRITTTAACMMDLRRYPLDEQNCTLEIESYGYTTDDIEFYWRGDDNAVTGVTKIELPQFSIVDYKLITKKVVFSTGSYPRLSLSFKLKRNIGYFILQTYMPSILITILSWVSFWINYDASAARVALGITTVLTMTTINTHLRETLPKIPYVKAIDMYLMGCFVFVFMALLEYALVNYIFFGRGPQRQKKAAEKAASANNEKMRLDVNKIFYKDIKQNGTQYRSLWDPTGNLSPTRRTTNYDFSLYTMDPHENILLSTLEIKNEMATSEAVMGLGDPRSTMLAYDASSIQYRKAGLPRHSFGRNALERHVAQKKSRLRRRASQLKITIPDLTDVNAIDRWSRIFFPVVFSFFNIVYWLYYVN
T1 sequence (P18507 40-475 partner): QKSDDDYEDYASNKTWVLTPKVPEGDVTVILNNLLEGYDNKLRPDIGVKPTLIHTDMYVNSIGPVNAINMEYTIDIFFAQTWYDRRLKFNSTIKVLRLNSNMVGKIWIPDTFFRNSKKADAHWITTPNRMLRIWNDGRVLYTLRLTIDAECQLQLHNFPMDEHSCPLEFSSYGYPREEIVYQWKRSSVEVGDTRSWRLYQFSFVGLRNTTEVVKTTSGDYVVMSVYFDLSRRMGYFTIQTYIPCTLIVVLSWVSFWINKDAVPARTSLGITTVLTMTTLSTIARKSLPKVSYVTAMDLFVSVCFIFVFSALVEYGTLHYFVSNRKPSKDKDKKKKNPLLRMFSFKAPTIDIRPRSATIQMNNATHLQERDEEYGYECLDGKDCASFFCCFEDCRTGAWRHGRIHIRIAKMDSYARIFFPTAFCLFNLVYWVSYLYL
Description: (§1) Oxafuramine is tested at 10^−5 M, calculated as a % inhibition of control specific binding of a radioactively labeled ligand specific for each target.
(§2) This binding profile panel was broadly defined with roughly an equal number of selective, central and peripheral therapeutically relevant targets, including native animal tissues, radioligands and specific enzymes involved in cell cycle regulation in accordance with Eurofins Standard Operating Procedure (www.eurofins.fr).
(§3) For radioligand binding experiments, the half maximal inhibitory concentration (IC50) and the half maximal effective concentration (EC50) values were determined (via computer software) by nonlinear regression analysis of the competition curves using Hill equation curve fitting. The inhibition constants (Ki) were calculated using the Cheng-Prusoff equation (Ki=IC50/(1+(L/KD)), where L is the concentration of radioligand in the assay, and KD is the affinity of the radioligand for the receptor.
(§4) The results are expressed as a % control specific binding ([measured specific binding/control specific binding]×100) and as a % inhibition of control specific binding (100−[(measured specific binding/control specific binding)×100]) obtained in the presence of the test compounds. […]

DAT (h) = biological target: T2, DAT (h) (Homo sapiens, UniProt Q01959); assay: Radioligand binding panel, DAT (h) (antagonist radioligand); conditions: % inhibition of control specific binding
T2 construct: Eurofins (contract panel)
T2 sequence (Q01959 whole entry): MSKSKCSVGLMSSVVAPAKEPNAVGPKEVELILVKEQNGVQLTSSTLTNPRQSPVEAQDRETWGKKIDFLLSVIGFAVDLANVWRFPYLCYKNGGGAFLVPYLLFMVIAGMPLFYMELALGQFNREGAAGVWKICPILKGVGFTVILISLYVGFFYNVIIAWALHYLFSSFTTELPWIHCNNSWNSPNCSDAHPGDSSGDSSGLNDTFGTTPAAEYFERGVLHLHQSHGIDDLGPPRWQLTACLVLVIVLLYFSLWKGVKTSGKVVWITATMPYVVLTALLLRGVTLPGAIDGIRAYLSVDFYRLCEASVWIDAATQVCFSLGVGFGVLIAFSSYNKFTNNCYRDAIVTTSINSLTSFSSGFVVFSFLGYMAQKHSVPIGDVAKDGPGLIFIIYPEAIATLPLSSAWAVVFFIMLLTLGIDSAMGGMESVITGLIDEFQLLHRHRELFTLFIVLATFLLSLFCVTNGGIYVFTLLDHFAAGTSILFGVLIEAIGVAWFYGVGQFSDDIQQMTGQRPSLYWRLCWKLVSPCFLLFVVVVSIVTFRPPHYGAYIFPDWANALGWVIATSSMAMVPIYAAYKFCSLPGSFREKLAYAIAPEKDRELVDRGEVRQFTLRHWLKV
Description: as §1, §2, §3, §4

Relaxin-3 (RXFP3) (h) = biological target: T3, Relaxin-3 (RXFP3) (h) (Homo sapiens, UniProt Q9NSD7); assay: Relaxin-3 (RXFP3) (h) (agonist radioligand); assay type: binding
T3 sequence (Q9NSD7 1-469): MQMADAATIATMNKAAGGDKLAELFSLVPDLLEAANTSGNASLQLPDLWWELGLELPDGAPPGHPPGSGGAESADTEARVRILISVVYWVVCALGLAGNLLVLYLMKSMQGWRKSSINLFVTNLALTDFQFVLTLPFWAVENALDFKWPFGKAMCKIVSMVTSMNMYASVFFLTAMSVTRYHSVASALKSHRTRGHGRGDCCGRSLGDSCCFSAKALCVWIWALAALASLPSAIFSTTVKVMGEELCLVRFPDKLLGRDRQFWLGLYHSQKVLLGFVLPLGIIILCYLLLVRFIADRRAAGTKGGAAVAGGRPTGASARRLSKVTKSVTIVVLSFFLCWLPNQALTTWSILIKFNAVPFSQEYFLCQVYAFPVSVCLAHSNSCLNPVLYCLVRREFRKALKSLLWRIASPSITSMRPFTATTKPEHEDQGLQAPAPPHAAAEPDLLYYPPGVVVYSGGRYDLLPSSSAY
Description: as §1
The results are expressed as a % control specific binding ([measured specific binding/control specific binding]×100) and as a % inhibition of control specific binding (100−[(measured specific binding/control specific binding)×100]) obtained in the presence of the test compounds.
Results showing an inhibition (or stimulation) lower than 25% are not considered significant and mostly attributable to variability of the signal around the control level. […]
• 1. cAMP Hunter cell lines were expanded from freezer stocks according to standard procedures. • 2. Cells were seeded in a total volume of 20 μL into white walled, 384-well microplates and incubated at 37° C. for the appropriate time prior to testing. • 3. cAMP modulation was determined using the DiscoverX HitHunter cAMP XS+ assay. […]
[formula] • 6. For Gi positive allosteric mode assays, percentage modulation is calculated using the following formula: % Modulation=100%×(1−(mean RLU of test sample−mean RLU of MAX control) /(mean RLU of EC20 control−mean RLU of MAX control)). • 7. […]

[1] = Body weight of the mice in the NOR study; assay type: in vivo, C57BL/6J, male; conditions: mean, N = 16
Text: Statistical analyses: • Read-outs: DI, N-F, ST, CT, N, F • Unpaired Student's t test: Donep 2 group vs. Control group. • One-way ANOVA, Dunnett test: • NLS-12 groups vs. Control group. • NLS-12 groups vs. Donep 2 group. • Read-outs: DI and N-F, for all groups, paired Student's t test, difference vs. 0. • Body weight: one-way ANOVA.

## CCN[C@H](Cc1ccccc1)[C@H]1CCCO1 [Oxafuramine, (1R)—N-ethyl-1-[(2R)-oxolan-2-yl]-2-phenylethanamine]
GABA-A1
  inhibition at 10 µM: 19.2%
DAT (h); 10^−5 M
  inhibition at 10 µM: 94.1%
DAT (h)
  % Inhibition at 10^−5M, DAT (h) (antagonist radioligand): appreciable potencies
Relaxin-3 (RXFP3) (h)
  % Inhibition at 10^−5M, Relaxin-3 (RXFP3) (h) (agonist radioligand): weakly target
Relaxin-3 (RXFP3) (h); 10^−5 M
  inhibition at 10 µM: 16.5%
[1]; NLS-12 1 mg/kg i.p. group
  BW Body weight: 22.8 g
[1]; NLS-12 4 mg/kg i.p. group
  BW Body weight: 23.5 g
[1]; NLS-12 8 mg/kg i.p. group
  BW Body weight: 22.9 g
